Laboratory results as given in patent publication US6827926B2, “Metallotetrapyrrolic photosensitizing agents for use in photodynamic therapy” (Miravant Pharmaceuticals, Inc., priority 2001, dated 2004).
Like-named read-outs stand apart in the source and are kept apart here.

How the values were obtained:
[1] = tested on: V79 (Chinese Hamster Lung Fibroblasts) cells; test: In vitro cytotoxicity assay (light EC50, Alamar blue); type: cell-based
Procedure, shortened: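 V79 cells in phenol-free 5% FBS/DMEM exposed 24 h to photosensitizer at final 0.01–5.0 μM, six replicates, then washed and light-treated, with a dark plate as control. Survival by Alamar blue after 24 h dark incubation, read at 570/600 nm.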

[2] = tested on: normal skin of CD Hairless male rats; type: in vivo, rat
Procedure, shortened: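 Liposomal egg yolk phospholipid photosensitizer given as single i.v. tail-vein bolus at 1, 1.5 and 2 μmol/kg; skin spots irradiated with 532 nm laser (150 mW/cm^2, 150J, 1 cm) at 1, 6, 24, 48, 96 hrs post injection. Value is time of last observed skin response spot.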

[3] = tested on: normal uninjured rat carotid arteries (medial and adventitial cell populations); test: In vivo rat carotid artery acellularity after PDT; design: species or system Sprague Dawley rats; settings: for Max % rat Artery Accelularity: Table 3; for Max % Rat Artery Accelularity: Table 4, 575 nm (Pt 532 nm)
Procedure, shortened: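 Metallated photosensitizers light-activated in normal uninjured rat left common carotid via balloon catheter introduced through femoral arteriotomy under isoflurane; excitation 575 nm (Ga, Zn, Al, Sn) or 532 nm (Pt). Arteries harvested 3 days post-treatment, H&E-stained; medial and adventitial cell density assessed by light microscopy.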

[4] = Table 3 porphyrins, 24 h drug incubation, 532 nm, 1.25 J/cm^2, read-out: In Vitro EC50 Light
[5] = drug dose 1 μMol, 50 J/cm^2, 3 days post treatment
[6] = Table 4 azaporphyrins, 575 nm (Pt azaporphyrins 532 nm), 1.25 J/cm^2, read-out: In Vitro EC(50)

Molecule | EC50 [1, 4] [µM] | Normal skin Response (1 μmol) ([2]; rat, in vivo) [h] | Max % rat Artery Accelularity [3, 5] [%] | further results
CCOC(=O)CCCCC1=C(C)C2=Cc3c(CC)c(C)c4[n]3[Sn]([Cl])([Cl])[n]3c(c(C)c(CCCCC(=O)OCC)c3=CC1=N2)=CC1=NC(=C4)C(CC)=C1C [Example 51, Tin(IV)dichloride 8,13-diethyl-3,7,12,17-tetramethylporphyrin-2,18-di(pentanoic acid ethyl ester)] | 1.7 | 24 | 20 | 
Gallium Chloride Chloroporphyrin e6 Trimethyl Ester [Example 13] |  | 6 |  | EC50 ([1]; Table 5 plant derived gallium porphyrins, light, read-out: In Vitro EC(50)): 0.4 µM; Max % Rat Artery Acceluarity ([3]; Table 5, drug dose 1 μMol): 70%
8,13-diethyl-3,7,12,17-tetramethylporphrine-2,18-di(3′-hydroxypropyl) [Example 7a] | 0.4 |  |  | Normal skin Response (1 μmol) in hrs ([2]; rat, in vivo): none; Max % rat Artery Accelularity ([3]; drug dose 0.16 μMol): 7%; efficacy of free base porphyrins in the arterial rat model ([3]; at the time point, drug and light dose parameters used): poor efficacy; efficacy in the rat arterial model ([3]; drug doses up to 2 μmol/Kg): no efficacy
C=CC1=C(C)C2=Cc3c(C=C)c(C)c4[n]3[Al-2]35([Cl])[n]6c(c(C)c(CCC(=O)OC)c6=CC6=[N+]3C(=C4)C(C)=C6CCC(=O)OC)=CC1=[N+]25 [M=Al R1=V R3=Me R4=V R2=CO2Me] | 3.5 | 6 | 0 | 
COC(=O)CCC1=C(C)c2cc3[n-]c(cc4nc(cc5[n-]c(cc1n2)c(CCC(=O)OC)c5C)C(CO)=C4C)c(CO)c3C.[Cl-].[Ga+3] [Example 40, Gallium Chloride 3,8-hydroxymethyl deuteroporphyrin dimethyl ester] | 0.6 |  | 5 | Normal skin Response (1 μmol) ([2]; Table 3, time of last skin spot observed post injection, 1 μmol, 532 nm laser): 6 h
CCOC(=O)CCCCC1=C(C)c2cc3[n-]c(cc4nc(cc5[n-]c(cc1n2)c(CCCCC(=O)OCC)c5C)C(C)=C4CC)c(C)c3CC.[Cl-].[Ga+3] [Example 28, Gallium Chloride 8,13-diethyl-3,7,12,17-tetramethylporphyrin-2,18-di(pentanoic acid ethyl ester)] | 0.4 | 6 | 80 | 
CCC1=C(C)c2cc3[n-]c(cc4nc(cc5[n-]c(cc1n2)c(C)c5CCC(=O)OC)C(CCC(=O)OC)=C4C)c(C)c3CC.[Cl-].[In+3] [Example 31, Indium Chloride Mesoporphyrin Dimethyl Ester] | 0.07 | 96 | 90 | 
COC(=O)CCC1=C(C)c2cc3[n-]c(cc4nc(cc5[n-]c(cc1n2)c(CCC(=O)OC)c5C)C(Br)=C4C)c(Br)c3C.[Cl-].[Ga+3] [Example 39, Gallium Chloride 3,8-dibromodeuteroporphyrin dimethyl ester] | 0.4 | 6 | 75 | 
CCC1=C(CC)C2=Nc3c(CC)c(CC)c4[n]3[In]([Cl])[n]3c(c(C)c(CCC(=O)NC)c3=CC3=NC(=C4)C(C)=C3CCC(=O)NC)=CC1=N2 [Example 91, Indium Chloride 7,8,12,13-tetraethyl-12,17-dimethyl-10-azaporphyrin-2,18-di(propionic acid methyl amide)] |  | 48 |  | EC50 [1, 6]: 0.07 µM; Max % Rat Artery Accelularity ([3]; drug dose 1 μMol): 50%
CCC1=C(C)c2cc3[n-]c(cc4nc(cc5[n-]c(cc1n2)c(C)c5CC)C(C)=C4CCCCC(=O)OC)c(CCCCC(=O)OC)c3C.[Cl-].[Ga+3] [Example 57, Gallium Chloride 8,13-diethyl-3,7,12,17-tetramethylporphyrin-2,18-di(pentanoic acid methyl ester)] | 0.46 | 6 | 80 | factor of decrease of normal skin response / skin clearance time versus the parent methyl ester ([2]; rat, in vivo): 8; acellularity (rat artery) ([3]; text b234, 1 μmol/Kg (printed 1 mol/Kg for 57)): 80%
CCC1=C(C)C2=[N+]3C1=Cc1c(C)c(CC)c4[n]1[Zn-2]31[n]3c(c(C)c(CCC(=O)N(CC)CC)c3=CC3=[N+]1C(=C4)C(C)=C3CCC(=O)N(CC)CC)=C2 (centres unmarked) [Example 62, Zinc Mesoporphyrin N,N-diethylamide] | 4 | 24 | 0 | 
Aluminum Chloride 7,8,12,13-tetraethyl-12,17-dimethyl-10-azaporphyrin-2,18-di(propionic acid methyl ester) [Example 84] |  | 48 |  | EC50 [1, 6]: 0.04 µM; Max % Rat Artery Accelularity ([3]; drug dose 1 μMol): 50%
CC1=Cc2cc3[n-]c(cc4nc(cc5[n-]c(cc1n2)c(C)c5CCCO)C(CCCO)=C4C)cc3C.[Cl-].[Ga+3] [Example 8, Gallium Chloride 8,13-desvinyl-3,7,12,17-tetramethylporphyrin-2,18-di(3′-hydroxypropyl)] | 0.4 | 96 | 80 | 
CCC1=C(C)c2cc3[n-]c(cc4nc(cc5[n-]c(cc1n2)c(C)c5CCC(=O)OCCF)C(CCC(=O)OCCF)=C4C)c(C)c3CC.[Cl-].[Ga+3] [Example 34, Gallium Chloride Mesoporphyrin di (2-fluoroethylester)] | 0.4 | 24 | 80 | 
Aluminum Chloride Mesoporphyrin Dimethyl Ester [Example 30] | 3 | 24 | 0 | 
CCOC(=O)CCCC1=C(C)C2=Cc3c(C)c(CC)c4[n]3[Ga-2]35([Cl])[n]6c(c(C)c(CCCC(=O)OCC)c6=CC1=[N+]23)=CC1=[N+]5C(=C4)C(C)=C1CC [M=Ga R1=Et R3=Me R4=Et R2=CH2CO2Et] | 0.4 | 24 | 80 | 
CCC1=C(C)C2=[N+]3C1=Cc1c(C)c(CC)c4[n]1[Ga-2]31([OH])[n]3c(c(C)c(CCCNCCCO)c3=CC3=[N+]1C(=C4)C(C)=C3CCCNCCCO)=C2 [Example 78, Gallium Hydroxy 8,13-diethyl-3,7,12,17 tetramethylporphyrin-2,18-di((N-3′-hydoxypropyl)-3-aminopronpyl)] | 1 | 6 |  | Max % rat Artery Accelularity ([3]; drug dose 2 μMol): 10%
CCC1=C(C)c2cc3[n-]c(cc4nc(cc5[n-]c(cc1n2)c(C)c5CC)C(C)=C4CCCO)c(CCCO)c3C.[Cl-].[In+3] [Example 72, Indium Chloride 8,13-diethyl-3,7,12,17-tetramethylporphyrin-2,18-di(3′-hydroxypropyl)] | 0.04 | 96 |  | Max % rat Artery Accelularity ([3]; drug dose 0.5 μMol): 40%
COC(=O)CCC1=C(C)C2=Cc3c(C)c(CN(C)C)c4[n]3[Pt][n]3c(c(C)c(CCC(=O)OC)c3=CC1=N2)=CC1=NC(=C4)C(C)=C1CN(C)C [Example 41, Platinum 3,8-Bis(dimethylaminomethyl) deuteroporphyrin dimethyl ester] | 0.2 | 48 | 0 | 
CCC1=C(C)C2=[N+]3C1=Cc1c(C)c(CC)c4[n]1[Pt-2]31[n]3c(c(C)c(CCC(=O)NC)c3=CC3=[N+]1C(=C4)C(C)=C3CCC(=O)NC)=C2 (centres unmarked) [Example 60, Platinum Mesoporphyrin N-methylamide] | 0.12 | 96 | 25 | 
CCC1=C(CC)C2=[N+]3C1=Nc1c(CC)c(CC)c4[n]1[Ga-2]31([Cl])[n]3c(c(C)c(CCC(=O)O)c3=CC3=[N+]1C(=C4)C(C)=C3CCC(=O)O)=C2 [Example 87, Gallium Chloride 7,8,12,13-tetraethyl-12,17-dimethyl-10-azaporphyrin-2,18-di(propionic acid)] |  | 24 |  | EC50 [1, 6]: 0.31 µM; accelularity in rat artery at a four hour treatment point ([3]; 4 hrs post administration): 30%; Max % Rat Artery Accelularity ([3]; drug dose 1 μMol): 30%
CCC1=C(C)c2cc3[n-]c(cc4nc(cc5[n-]c(cc1n2)c(C)c5CC)C(C)=C4CCCOC)c(CCCOC)c3C.[Cl-].[In+3] [Example 75, Indium Chloride 8,13-diethyl-3,7,12,17-tetramethylporphyrin-2,18-di(3′-methoxypropyl)] | 0.06 | 96 | 75 | 
